Our source for the pest or weed control values is patent US8853238B2, “Fused heterocyclic compound and use thereof for pest control” (Sumitomo Chemical Company, Limited, priority 2010, dated 2014).

Molecules are shown by their SMILES.

Assay type in all cases: in vivo
Experiment [1] has as its system Nilaparvata lugens. The experiment is described as follows: Test Example 4: spray on rice seedling, release of Nilaparvata lugens larvae. The note with it: 144 h, read-out: Control value.
Experiment [2] concerns Aphis gossypii. Briefly: Test Example 2: root immersion of cucumber seedling, then inoculation with Aphis gossypii. The note with it: 168 h; 500 ppm active ingredient; cucumber root part immersed in 5 ml; 30 Aphis gossypii inoculated one day after treatment; examined after further seven days. How it is done:
A root part of a cucumber seedling (the first true leaf stage) from which soil had been washed off was immersed in 5 ml of each of the diluted solutions, and one day after treatment, on the cucumber leaf surface was inoculated with 30 Aphis gossypii (whole stage). After further seven days, the number of insect of living Aphis gossypii parasitized on the leaves of the cucumber was examined, and a control value was calculated according to the following equation: Control value (%)={1−(Cb×Tai)/(Cai×Tb))×100 wherein symbols represent as follows: Cb: the number of insects in a non-treated section before treatment, Cai: the number of insects in a non-treated section in observation, Tb: the number of insects in a treated-section before treatment, Tai: the number of insects in a treated-section in observation; wherein the non-treated section represents a section where the test diluted solution prepared by diluting the formulation without the present compound in Formulation Example 5 with the same amount of water as in the treated-section was used.

Experiment [3] relates to Nilaparvata lugens. Briefly: Test Example 5: drench at foot of rice seedling, release of Nilaparvata lugens larvae. The note with it: soil, 144 h; 500 ppm active ingredient; rice seedling drenched at its foot with 5 ml, kept 7 days; twenty third-fourth instar larvae of Nilaparvata lugens; examined after 6 days. How it is done: On the other hand, a rice seedling (2 weeks after sowing, the second leaf stage) planted in a plastic cup was drenched at its foot with 5 ml of each of the diluted solutions, and kept in a greenhouse of 25° C. for 7 days. Twenty third-fourth instar larvae of Nilaparvata lugens were released, and further kept in the greenhouse for 6 days, then the number of insect of living Nilaparvata lugens parasitized on the rice was examined, and a control value was calculated according to the following equation: Control value (%)={1−(Cb×Tai)/(Cai×Tb))×100 wherein symbols represent as follows: Cb: the number of insects in a non-treated section before treatment, Cai: the number of insects in a non-treated section in observation, Tb: the number of insects in a treated-section before treatment, Tai: the number of insects in a treated-section in observation; wherein the non-treated section represents a section where the test diluted solution prepared by diluting the formulation without the present compound in Formulation Example 5 with the same amount of water as in the treated-section was used.

Experiment [4] deals with Aphis gossypii. Briefly: Test Example 1: spray on cucumber seedling inoculated with Aphis gossypii. The note with it: topical, 144 h; 500 ppm active ingredient (Formulation Example 5 diluted with water); 20 ml sprayed on cucumber seedling with about 30 Aphis gossypii; six days after spraying. How it is done: On the other hand, on a cucumber seedling (the first true leaf stage) planted in a plastic cup was inoculated with about 30 Aphis gossypii, and leaving it for a day. Twenty ml of each of the above test spray solutions was sprayed on this seedling. Six days after spraying, the number of the surviving Aphis gossypii parasitized on the leaves of the cucumber was examined, and a control value was calculated according to the following equation: Control value (%)={1−(Cb×Tai)/(Cai×Tb))×100 wherein symbols represent as follows: Cb: the number of insects in a non-treated section before treatment, Cai: the number of insects in a non-treated section in observation, Tb: the number of insects in a treated-section before treatment, Tai: the number of insects in a treated-section in observation; wherein the non-treated section represents a section where the test spray solution prepared by diluting the formulation without the present compound in Formulation Example 5 with the same amount of water as in the treated-section was sprayed.

[5] abbreviates: 500 ppm active ingredient, rice seedling sprayed with 10 ml, third-fourth instar larvae of Nilaparvata lugens, after 6 days at 25° C.

On to `CSc1ccccc1-c1nc2cc(C(F)(F)F)cnc2n1C` [Present Compound 1, 3-methyl-2-(2-methylsulfanylphenyl)-6-trifluoromethyl-3H-imidazo[4,5-b]pyridine], for which the pest or weed control at 500 ppm in the experiment with Nilaparvata lugens [1] (setting [5]) is at least 90%.

As to `CC(C)Sc1ccccc1-c1nc2cc(C(F)(F)F)cnc2n1C` [Present Compound 12, 2-(2-isopropylsulfanylphenyl)-3-methyl-6-trifluoromethyl-3H-imidazo[4,5-b]pyridine], the pest or weed control at 500 ppm with Nilaparvata lugens [1] (setting [5]) was at least 90%.

For `Cn1c(-c2ccccc2[S+]([O-])C(C)(C)C)nc2cc(C(F)(F)F)cnc21` (centres unmarked) [Present Compound 16, 2-(2-tert-butylsulfinylphenyl)-3-methyl-6-trifluoromethyl-3H-imidazo[4,5-b]pyridine], the pest or weed control at 500 ppm in the experiment with Aphis gossypii [2] was at least 90%. In turn, `CCOCn1c(-c2ccccc2SCC)nc2cc(C(F)(F)F)cnc21` [Present Compound 33, 3-ethoxymethyl-2-(2-ethylsulfanylphenyl)-6-trifluoromethyl-3H-imidazo[4,5-b]pyridine] showed a pest or weed control at 500 ppm in the experiment on Aphis gossypii [2] of at least 90%. For `CCOCn1c(-c2ccccc2SCC)nc2ncc(C(F)(F)F)cc21` [Present Compound 34, 1-ethoxymethyl-2-(2-ethylsulfanylphenyl)-6-trifluoromethyl-1H-imidazo[4,5-b]pyridine], the pest or weed control at 500 ppm with Aphis gossypii [2] was at least 90%. Same read-out and setting: the value for `CCOCn1c(-c2ccccc2S(=O)(=O)CC)nc2cc(C(F)(F)F)cnc21` [Present Compound 36, 2-(2-ethylsulfonylphenyl)-3-ethoxymethyl-6-trifluoromethyl-3H-imidazo[4,5-b]pyridine] was at least 90%. In the experiment on Nilaparvata lugens [3], `CCS(=O)(=O)c1ccccc1-c1nc2cc(C(F)(F)F)cnc2n1COC` [Present Compound 38, 2-(2-ethylsulfonylphenyl)-3-methoxymethyl-6-trifluoromethyl-3H-imidazo[4,5-b]pyridine] registered a pest or weed control at 500 ppm of at least 90%.

In the case of `CC[S+]([O-])c1ccccc1-c1nc2cc(Br)cnc2n1C` (centres unmarked) [Present Compound 43, 6-bromo-2-(2-ethylsulfinylphenyl)-3-methyl-3H-imidazo[4,5-b]pyridine], the pest or weed control at 500 ppm in the experiment with Aphis gossypii [2] is at least 90%. With `CC[S+]([O-])c1ccccc1-c1nc2cc(I)cnc2n1C` (centres unmarked) [Present Compound 46, 2-(2-ethylsulfinylphenyl)-6-iodo-3-methyl-3H-imidazo[4,5-b]pyridine], the pest or weed control at 500 ppm in the experiment on Aphis gossypii [4], in the experiment on Aphis gossypii [2] and in the experiment on Nilaparvata lugens [1] (setting [5]) was at least 90% in each case.

With `CC[S+]([O-])c1ccccc1-c1nc2cc(C(F)F)cnc2n1C` (centres unmarked) [Present Compound 53, 6-difluoromethyl-2-(2-ethylsulfinylphenyl)-3-methyl-3H-imidazo[4,5-b]pyridine], the pest or weed control at 500 ppm in the experiment with Aphis gossypii [4] and in the experiment with Aphis gossypii [2] was at least 90% in each case. As for `CCSc1ccccc1-c1nc2ncc(C(F)(F)F)cc2n1C` [Present Compound 66, 2-(2-ethylsulfanylphenyl)-1-methyl-6-trifluoromethyl-1H-imidazo[4,5-b]pyridine], the pest or weed control at 500 ppm in the experiment with Aphis gossypii [4] and in the experiment with Aphis gossypii [2] was at least 90% each time.

In the case of `CCSc1ccccc1-c1nc2cc(C(F)(F)F)ccc2n1C` [Present Compound 68, 2-(2-ethylsulfanylphenyl)-1-methyl-5-trifluoromethyl-1H-benzimidazole], in the experiment with Nilaparvata lugens [1] (setting [5]), the pest or weed control at 500 ppm was at least 90%. Consider `CC[S+]([O-])c1ccccc1-c1nc2cc(C(F)(F)F)ccc2n1C` (centres unmarked) [Present Compound 69, 2-(2-ethylsulfinylphenyl)-1-methyl-5-trifluoromethyl-1H-benzimidazole], for which the pest or weed control at 500 ppm in the experiment with Aphis gossypii [2] and with Nilaparvata lugens [1] (setting [5]) was at least 90% in each case. The compound `CCS(=O)(=O)c1ccccc1-c1nc2cc(C(F)(F)F)ccc2n1C` [Present Compound 70, 2-(2-ethylsulfonylphenyl)-1-methyl-5-trifluoromethyl-1H-benzimidazole] registered a pest or weed control at 500 ppm in the experiment with Aphis gossypii [2] of at least 90%. `CC[S+]([O-])c1ccccc1-c1nc2cc(C(F)(F)F)cc(Cl)c2n1C` (centres unmarked) [Present Compound 72, 7-chloro-2-(2-ethylsulfinylphenyl)-1-methyl-5-trifluoromethyl-1H-benzimidazole]: the pest or weed control at 500 ppm with Aphis gossypii [4] is at least 90%. In the experiment on Aphis gossypii [2], `CC[S+]([O-])c1ccccc1-c1nc2cc(C(F)(F)F)cnc2o1` (centres unmarked) [Present Compound 82, 2-(2-ethylsulfinylphenyl)-6-trifluoromethyloxazolo[5,4-b]pyridine] had a pest or weed control at 500 ppm of at least 90%.

Regarding `CCS(=O)(=O)c1ccccc1-c1nc2cc(C(F)(F)F)cnc2o1` [Present Compound 83, 2-(2-ethylsulfonylphenyl)-6-trifluoromethyloxazolo[5,4-b]pyridine], the pest or weed control at 500 ppm in the experiment on Aphis gossypii [2] and with Nilaparvata lugens [1] (setting [5]) was at least 90% in each case. As to `CSc1ccccc1-c1nc2cc(C(F)(F)F)ccc2s1` [Present Compound 84, 2-(2-methylsulfanylphenyl)-5-trifluoromethylbenzothiazole], the pest or weed control at 500 ppm with Nilaparvata lugens [1] (setting [5]) is at least 90%. Regarding `CCSc1ccccc1-c1nc2cc(C(F)(F)C(F)(F)C(F)(F)F)cnc2n1C` [Present Compound 128, 2-(2-ethylsulfanyl-phenyl)-6-heptafluoropropyl-3-methyl-3H-imidazo[4,5-b]pyridine], the pest or weed control at 500 ppm in the experiment with Nilaparvata lugens [1] (Nilaparvata lugens) is at least 90%. On to `CCSc1ccccc1-c1nc2ccc(C(F)(F)F)nc2n1C` [Present Compound 151, 2-(2-ethylsulfanylphenyl)-3-methyl-5-trifluoromethyl-3H-imidazo[4,5-b]pyridine], for which, in the experiment on Aphis gossypii [4], the pest or weed control at 500 ppm is at least 90%.

`CC[S+]([O-])c1ccccc1-c1nc2nc(C(F)(F)F)ccc2n1C` (centres unmarked) [compound 167, 2-(2-ethylsulfinylphenyl)-1-methyl-5-trifluoromethyl-1H-imidazo[4,5-b]pyridine] yielded a pest or weed control at 500 ppm in the experiment with Aphis gossypii [2] of at least 90%. `CCSc1ccccc1-c1nc2cc(C(F)(F)F)cnc2s1` [compound 183, 2-(2-ethylsulfanylphenyl)-6-(trifluoromethyl)thiazolo[5,4-b]pyridine]: in the experiment with Aphis gossypii [4], the pest or weed control at 500 ppm was at least 90%. `CCS(=O)(=O)c1ccccc1-c1nc2cc(C(F)(F)F)cnc2s1` [compound 185, 2-(2-ethylsulfonylphenyl)-6-(trifluoromethyl)thiazolo[5,4-b]pyridine] returned a pest or weed control at 500 ppm with Nilaparvata lugens [3] of at least 90%.

In the experiment on Nilaparvata lugens [3], `CCS(=O)(=O)c1ccccc1-c1nc2cc([S+]([O-])C(F)(F)F)cnc2n1C` (centres unmarked) [compound 214, 2-(2-ethylsulfonylphenyl)-6-trifluoromethylsulfinyl-3-methyl-3H-imidazo[4,5-b]pyridine] displayed a pest or weed control at 500 ppm of at least 90%.

For `CCSc1cc(Br)ccc1-c1nc2cc(C(F)(F)F)cnc2n1C` [compound 238, 2-(4-bromo-2-ethylsulfanylphenyl)-3-methyl-6-trifluoromethyl-3H-imidazo[4,5-b]pyridine], the pest or weed control at 500 ppm with Nilaparvata lugens [1] (setting [5]) was at least 90%.

In the case of `CCSc1cc(C(F)(F)F)ccc1-c1nc2cc(S(F)(F)(F)(F)F)ccc2n1C` [compound 314, 2-(2-ethylsulfanyl-4-trifluoromethyl-phenyl)-1-methyl-5-(pentafluorosulphur)-1H-benzimidazole], in the experiment on Nilaparvata lugens [1] (setting [5]), the pest or weed control at 500 ppm was at least 90%.
